Measurements: US20240025920A1, “SALT FORM USED AS CDC7 INHIBITOR AND CRYSTAL FORM THEREOF” (Chia Tai Tianqing Pharmaceutical Group Co., Ltd., priority 2020, published 2024)
Where two headings read alike, the source gives them in different places.

Experiments:
[1] = molecular target: CDC7/DBF4 kinase (Homo sapiens, UniProt O00311); test: ADP-Glo kinase assay, inhibition of CDC7/DBF4 kinase activity; type: biochemical; details: for IC50: CDC7/DBF4, 10 μM ATP
Text: The ADP-Glo™ kinase assay is a chemiluminescent kinase assay. The reaction of kinase with substrate requires ATP to provide energy, thereby converting ATP into ADP. The enzymatic activity is reflected by the amount of ADP produced in the reaction. In the assay, ADP is converted into ATP, and then ATP binds to Ultra-Glo™ Luciferase with light emitted; the intensity of light emission is directly proportional to the amount of ADP.
The ADP-Glo™ assay was used to investigate the inhibitory effect of crystal form A of the test compound of formula (II) on the activity of CDC7/DBF4 kinase. The highest concentration of the test compound was 10 μM, and 5-fold serial dilution was performed to obtain 8 concentration points. The compound was re-tested on a different day, and each test was performed in duplicate.
• 1) Preparation of 10 mM DTT (freshly prepared at the time of use) • 1 μL of 0.1 M DTT was measured out and 9 μL of deionized water was added. • 2) 2× assay buffer (freshly prepared at the time of use) • 168 μL of Kinase assay buffer III was measured out and 2.5-fold diluted with 248 μL of deionized water, and 4.2 μL of 10 mM DTT was added. The buffer was kept on ice before use. • 3) 1× assay buffer (freshly prepared at the time of use) • 250 μL of 2× assay buffer was measured out and diluted into 1× assay buffer by adding 250 μL of deionized water. The buffer was kept on ice before use. • 4) ADP-Glo Kinase Assay
The kit contains an ADP-Glo™ reagent, a kinase assay solution, a kinase assay solution matrix and a 10 mM ATP stock solution.
Preparation of the kinase assay solution: The kinase assay buffer and the kinase assay solution matrix were equilibrated to room temperature and then mixed. After complete dissolution, the solution was ready. The unused solution should be aliquoted and stored at −20° C.
ADP-Glo™ reagent: The reagent was equilibrated to room temperature at the time of the first use. The unused solution should be aliquoted and stored at −20° C.
• 1) 10 mM test compound was diluted to 1 mM with 100% DMSO: 5 μL of 10 mM test compound was added to 45 μL of 100% DMSO; the concentration of the compound dilution was 1 mM, and the dilution was put into row A of a 384-well compound plate as the highest concentration. • 2) To row B through row H of the 384-well compound plate was added 20 μL of 100% DMSO. • 3) From row A, 5 μL of compound was transferred to row B, and the mixture was well mixed. Then 5 μL of compound was transferred from row B to row C, and the mixture was well mixed. This procedure was repeated to row H to complete the serial dilution of the compound. • 4) Preparation of compound working solutions: 0.5 μL/well of compound was transferred to a new 384-well compound plate, and 9.5 μL of 1× assay buffer was added. […]

[2] = system: COLO205 cells; test: CellTiter-Glo cell viability assay, proliferation of COLO205 cells; type: cell-based, Human; details: for IC50: Homo sapiens, COLO 205, 72 h, COLO205, 3 days incubation
Text: In the assay, the inhibitory effect of crystal form A of the compound of formula (II) on the proliferation of colorectal cell COLO205 that highly expresses Cdc7 was investigated.
CellTiter-Glo® Luminescent Cell Viability Assay is a homogeneous rapid assay for the viability of living cells in cultures by ATP quantification. ATP is an indicator of the metabolism of living cells. Cell lysis and the luminescence signals generated are directly proportional to the amount of ATP that exists, and the amount of ATP is directly proportional to the number of living cells in cultures.
Cells having achieved 80%-90% cell fusion were digested with pancreatin. After the digestion was stopped with 1 mL of culture medium, the cells were transferred to a new culture dish according to a proper proportion, and 10 mL of fresh cell culture medium was added to the culture dish. Then the cell culture dish was placed in a 37° C., 5% CO2 incubator to continue the culture.
The compound was diluted to 2 mM with 100% DMSO—that is, 5 μL of 10 mM compound stock solution was transferred to column 1 of a 96-well compound plate, 20 μL of 100% DMSO was then added, and the mixture was well mixed. To column 2 through column 9 of the 96-well compound plate was added 20 μL of 100% DMSO. From column 1, 10 μL of compound was transferred to column 2, and the mixture was well mixed. Then 10 μL of compound was transferred from column 2 to column 3, and the mixture was well mixed. This procedure was repeated to column 9 to complete the serial dilution of the compound. Preparation of compound working solutions: From the compound plate, 2 μL/well of compound was transferred to a new 96-well compound plate, and 78 μL/well of cell culture medium was added. To a negative control well was added 2 μL of 100% DMSO followed by 78 μL of cell culture medium. The compound concentration was the final concentration. The blank control well was a culture medium well containing no cells. The negative control was […].
COLO205 cells having achieved 80%-90% cell fusion were digested with pancreatin and counted. After counting, the cell suspension was diluted with cell culture medium to a desired density. To each well of a 96-well cell culture plate was inoculated 80 μL of cell suspension. […]
After the incubation, 100 μL of CTG assay reagent was added to each well of the cell plate, and the plate was incubated at 25° C. for 10 min. After the incubation, luminescence signals were measured on Envision.
The signal value of the background blank control well was subtracted from the measured signal value of each group for standardization. […]
The percent inhibition was calculated from the original readings according to the calculation formula. A graph was then plotted using Prism and the IC50 of the compound was calculated.

[3] = Stability test under accelerated conditions (HPLC related substances, appearance, crystal form, ee); type: physicochemical; design: impurity at RRT 0.31 / impurity at RRT 1.40 / impurity at RRT 0.23 / impurity at RRT 0.91 / impurity at RRT 0.98 / impurity at RRT 0.99 / impurity at RRT 1.08: unit not given here
Protocol: Instrument model: Agilent 1200 high performance liquid chromatograph
50 mg of crystal form A of the compound of formula (II) was measured and placed in a dry, clean glass bottle, spread into a thin layer, and left to stand under accelerated conditions (60° C., 25/92.5% RH, 40° C./75% RH and 60° C./75% RH). The sample was completely exposed, and the bottle was covered with aluminum foil in which holes are pricked. Samples were taken at 5 days, 10 days, 1 month, 2 months and 3 months and analyzed.

[4] = Hygroscopicity test (25° C., saturated ammonium chloride solution, 24 h); type: physicochemical; details: 25° C./80% RH criteria
Protocol: A dry glass weighing bottle with a lid was placed in a dryer with saturated ammonium chloride solution placed in the lower part, and the weighing bottle was left to stand uncovered. A lid was put on the dryer, and the dryer was placed in a 25° C. box and left to stand overnight. After being left to stand overnight, the weighing bottle was taken out and precisely weighed, and the weight was denoted by m1.
A proper amount of crystal form A of the compound of formula (II) was measured out and spread in the weighed measuring bottle (the sample was about 1 mm thick). The measuring bottled was then precisely weighed, and the weight was denoted by m2.
The weighing bottle, together with its lid, was placed in a dryer with saturated ammonium chloride solution placed in the lower part and left to stand uncovered. A lid was put on the dryer, and the dryer was placed in a 25° C. box and left to stand for 24 h. After 24 h of sitting, the lid was put on the weighing bottle and the bottle was taken out and precisely weighed, the weight denoted by m3.
The hygroscopic weight gain was calculated using the formula: percent weight gain=100%×(m3−m2)/(m2−m1).

Chain of CDC7/DBF4 kinase (O00311 whole entry): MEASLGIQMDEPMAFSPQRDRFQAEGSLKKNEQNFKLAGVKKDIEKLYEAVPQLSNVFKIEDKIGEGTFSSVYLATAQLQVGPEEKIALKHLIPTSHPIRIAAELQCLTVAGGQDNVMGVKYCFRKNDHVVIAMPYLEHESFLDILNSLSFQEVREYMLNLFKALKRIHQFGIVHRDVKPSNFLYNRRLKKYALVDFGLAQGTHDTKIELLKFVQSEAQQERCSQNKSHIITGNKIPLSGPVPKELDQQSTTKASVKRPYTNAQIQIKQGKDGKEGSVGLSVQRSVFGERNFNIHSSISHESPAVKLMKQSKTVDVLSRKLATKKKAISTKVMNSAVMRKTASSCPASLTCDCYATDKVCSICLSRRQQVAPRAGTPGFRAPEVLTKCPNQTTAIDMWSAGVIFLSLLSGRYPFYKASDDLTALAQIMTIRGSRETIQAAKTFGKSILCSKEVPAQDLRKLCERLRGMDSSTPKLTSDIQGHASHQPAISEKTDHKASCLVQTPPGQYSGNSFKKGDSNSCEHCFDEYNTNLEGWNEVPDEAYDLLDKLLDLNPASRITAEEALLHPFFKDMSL
Chain of CDC7/DBF4 kinase (Q9UBU7 whole entry partner): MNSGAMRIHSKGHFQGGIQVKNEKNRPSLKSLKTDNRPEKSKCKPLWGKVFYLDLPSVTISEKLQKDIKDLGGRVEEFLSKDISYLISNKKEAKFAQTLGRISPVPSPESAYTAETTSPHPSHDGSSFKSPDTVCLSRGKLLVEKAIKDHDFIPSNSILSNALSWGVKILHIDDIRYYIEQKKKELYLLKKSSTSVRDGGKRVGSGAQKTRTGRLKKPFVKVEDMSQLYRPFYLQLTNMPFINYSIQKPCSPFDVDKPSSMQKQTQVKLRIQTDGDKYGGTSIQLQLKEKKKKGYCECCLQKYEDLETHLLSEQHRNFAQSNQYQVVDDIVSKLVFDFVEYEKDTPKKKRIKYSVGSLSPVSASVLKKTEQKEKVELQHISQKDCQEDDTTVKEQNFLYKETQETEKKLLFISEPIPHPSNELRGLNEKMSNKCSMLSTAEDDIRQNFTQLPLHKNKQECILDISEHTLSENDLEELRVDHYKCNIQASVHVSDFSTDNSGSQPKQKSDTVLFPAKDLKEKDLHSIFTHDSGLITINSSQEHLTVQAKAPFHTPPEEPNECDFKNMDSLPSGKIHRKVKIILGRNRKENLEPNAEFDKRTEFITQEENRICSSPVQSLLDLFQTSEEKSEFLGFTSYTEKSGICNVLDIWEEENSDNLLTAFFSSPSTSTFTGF

O=C(O)/C=C\C(=O)O.O=c1[nH]c([C@@H]2CC3CCN2CC3)nc2c3c(sc12)-c1cn[nH]c1CCC3
IC50 ([1]; first assay, read-out: IC50 (nM) First assay): 3.49 nM
IC50 ([1]; mean of two assays, read-out: IC50 (nM) Mean): 2.92 nM
IC50 ([1]; second assay, read-out: IC50 (nM) Second assay): 2.35 nM
inhibitory effect on enzyme CDC7/DBF4 ([1]; conclusion in words): relatively strong inhibitory effect
IC50 ([2]; first assay, read-out: COLO205(nM) IC50 First assay): 14.3 nM
IC50 ([2]; mean of two assays, read-out: COLO205(nM) IC50 Mean): 14.5 nM
IC50 ([2]; second assay, read-out: COLO205(nM) IC50 Second assay): 14.7 nM
inhibitory effect on COLO205 cells ([2]; conclusion in words): relatively strong inhibitory effect
Appearance ([3]; 0 days): White
ee % ([3]; 0 days): 99.028%
impurity at RRT 0.31 ([3]; 0 days): 0.02
Appearance ([3]; 25/92.5% RH-5 days): White
TRS(%) total impurity content ([3]; 25/92.5% RH-5 days): 0.03%
ee % ([3]; 25/92.5% RH-5 days): 98.77%
impurity at RRT 0.31 ([3]; 25/92.5% RH-5 days): 0.03
Appearance ([3]; 25/92.5% RH-10 days): White
TRS(%) total impurity content ([3]; 25/92.5% RH-10 days): 0.06%
ee % ([3]; 25/92.5% RH-10 days): 98.958%
impurity at RRT 0.31 ([3]; 25/92.5% RH-10 days): 0.03
impurity at RRT 1.40 ([3]; 25/92.5% RH-10 days): 0.03
Appearance ([3]; 40° C./75% RH-1 month): White
TRS(%) total impurity content ([3]; 40° C./75% RH-1 month): 0.02%
ee % ([3]; 40° C./75% RH-1 month): 99.380%
impurity at RRT 0.31 ([3]; 40° C./75% RH-1 month): 0.02
Appearance ([3]; 40° C./75% RH-2 months): White
TRS(%) total impurity content ([3]; 40° C./75% RH-2 months): 0.02%
ee % ([3]; 40° C./75% RH-2 months): 100%
impurity at RRT 0.91 ([3]; 40° C./75% RH-2 months): 0.02
Appearance ([3]; 40° C./75% RH-3 months): White
TRS(%) total impurity content ([3]; 40° C./75% RH-3 months): 0%
ee % ([3]; 40° C./75% RH-3 months): 100%
Appearance ([3]; 40° C./75% RH-10 days): White
TRS(%) total impurity content ([3]; 40° C./75% RH-10 days): 0.04%
ee % ([3]; 40° C./75% RH-10 days): 99.164%
impurity at RRT 0.23 ([3]; 40° C./75% RH-10 days): 0.02
impurity at RRT 0.31 ([3]; 40° C./75% RH-10 days): 0.02
Appearance ([3]; 60° C.-5 days): White
TRS(%) total impurity content ([3]; 60° C.-5 days): 0.06%
ee % ([3]; 60° C.-5 days): 98.632%
impurity at RRT 0.23 ([3]; 60° C.-5 days): 0.03
impurity at RRT 0.31 ([3]; 60° C.-5 days): 0.03
Appearance ([3]; 60° C.-10 days): White
TRS(%) total impurity content ([3]; 60° C.-10 days): 0.10%
ee % ([3]; 60° C.-10 days): 98.900%
impurity at RRT 0.23 ([3]; 60° C.-10 days): 0.02
impurity at RRT 0.31 ([3]; 60° C.-10 days): 0.03
impurity at RRT 1.08 ([3]; 60° C.-10 days): 0.05
Appearance ([3]; 60° C./75% RH-1 month): White
TRS(%) total impurity content ([3]; 60° C./75% RH-1 month): 0.08%
ee % ([3]; 60° C./75% RH-1 month): 100%
impurity at RRT 0.23 ([3]; 60° C./75% RH-1 month): 0.02
impurity at RRT 0.98 ([3]; 60° C./75% RH-1 month): 0.03
impurity at RRT 0.99 ([3]; 60° C./75% RH-1 month): 0.03
Appearance ([3]; 60° C./75% RH-10 days): White
TRS(%) total impurity content ([3]; 60° C./75% RH-10 days): 0.03%
ee % ([3]; 60° C./75% RH-10 days): 98.872%
impurity at RRT 0.23 ([3]; 60° C./75% RH-10 days): 0.03
stability (impurity content) under high temperature and high humidity conditions ([3]; conclusion in words): the stability is good
category of hygroscopicity [4]: non-hygroscopic or hardly hygroscopic
